Laboratory results reported in patent publication US20140170210A1, “METHODS FOR TREATING IMMUNOSUPPRESSION” (TRUSTEES OF DARTMOUTH COLLEGE, priority 2011, published 2014).
Where two headings read alike, the source gives them in different places.

Experiments:
[1] = molecular target: T1, ACAT1 (Homo sapiens, UniProt P35610); conditions: cited from earlier work
T1 sequence (P35610 1-550): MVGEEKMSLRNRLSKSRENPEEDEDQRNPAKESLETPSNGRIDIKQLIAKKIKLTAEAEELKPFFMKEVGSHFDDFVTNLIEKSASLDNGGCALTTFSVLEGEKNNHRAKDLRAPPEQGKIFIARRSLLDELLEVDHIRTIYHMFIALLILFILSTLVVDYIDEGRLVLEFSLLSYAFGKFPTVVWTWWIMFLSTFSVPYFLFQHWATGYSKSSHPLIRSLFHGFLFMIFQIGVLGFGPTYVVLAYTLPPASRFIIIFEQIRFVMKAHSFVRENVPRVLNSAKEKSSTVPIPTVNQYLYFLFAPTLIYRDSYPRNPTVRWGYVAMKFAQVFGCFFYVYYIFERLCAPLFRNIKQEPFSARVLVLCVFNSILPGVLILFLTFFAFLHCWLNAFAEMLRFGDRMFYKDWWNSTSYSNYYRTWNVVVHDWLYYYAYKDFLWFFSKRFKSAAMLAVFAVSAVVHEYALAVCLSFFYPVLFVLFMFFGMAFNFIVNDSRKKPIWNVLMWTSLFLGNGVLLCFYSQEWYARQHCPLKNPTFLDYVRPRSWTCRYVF

[2] = molecular target: T2, hACAT-2 (Homo sapiens, UniProt O75908); conditions: cited from earlier work
T2 sequence (O75908 1-522): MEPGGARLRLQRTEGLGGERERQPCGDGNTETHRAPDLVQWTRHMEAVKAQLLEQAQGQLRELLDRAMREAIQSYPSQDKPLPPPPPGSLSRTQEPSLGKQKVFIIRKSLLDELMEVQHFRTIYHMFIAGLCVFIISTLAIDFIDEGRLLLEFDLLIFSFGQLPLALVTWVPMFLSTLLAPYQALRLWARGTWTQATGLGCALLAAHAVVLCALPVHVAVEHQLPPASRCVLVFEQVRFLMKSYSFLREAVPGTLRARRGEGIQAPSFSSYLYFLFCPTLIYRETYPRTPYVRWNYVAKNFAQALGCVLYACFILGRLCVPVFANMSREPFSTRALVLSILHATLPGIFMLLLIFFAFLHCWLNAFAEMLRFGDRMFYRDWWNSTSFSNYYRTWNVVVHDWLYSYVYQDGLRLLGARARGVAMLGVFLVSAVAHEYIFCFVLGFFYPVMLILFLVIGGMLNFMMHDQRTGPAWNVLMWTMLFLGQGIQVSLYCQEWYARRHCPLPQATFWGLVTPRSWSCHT

[3] = rats, dogs, and humans; cited from earlier work
[4] = tested on: human macrophages; conditions: in vitro; cited from earlier work
[5] = tested on: coronary atherosclerosis; conditions: in combination with a statin drug, patients; cited from earlier work
[6] = tested on: amyloid plaque load and cognitive deficits; conditions: cited from earlier work
[7] = tested on: cholesterol ester content in various systemic tissues; conditions: 4-30 mg/kg/day, small animals; cited from earlier work
[8] = laboratory animals; cited from earlier work
[9] = tested on: WT and Acat1-/- BM cells; experiment: Proliferation of cultured BM cells, 3H-thymidine pulse; assay type: cell-based, mouse; conditions: for effect on higher 3H-thymidine incorporation phenotype of Acat1-/- BM cells: 10 μM U0126, 1 μM PP2, 72 hours culture with growth factors
Description: WT and Acat1−/− BM cells were cultured in IMDM media containing 10% FBS in the presence of indicated growth factors with or without specific inhibitors as indicated for 72 hours. Concentrations of growth factors used: 100 ng/mL for stem cell factor, 6 ng/mL for IL3; 2 ng/ml for GM-CSF. Concentration of inhibitors used: 10 μM for U0126; 1 μM for PP2. Proliferation was measured after a 3 hour ^3H-thymidine pulse in intact cells. Results are means±SEM of duplicate cultures in 3 separate experiments. **P<0.01, * P<0.05 vs. WT.
For cell proliferation measurement in vivo, the manufacturer's protocol (BD Pharmingen; BrdU flow kit) was used. Age- and sex-matched mice of both genotypes were injected intraperitoneally twice, once every 12 hours, with 0.5 mg bromodeoxyuridine (BrdU)/injection/mouse. Twenty-four hours after the first injection, BM progenitor cells (LSKs, CMPs, GMPs, and MEPs) were stained and sorted as described earlier. Proliferation of each of the sorted cell populations was measured by measuring BrdU incorporation, using the BrdU flow kit (BD Pharmingen). Proliferation measurement of BM derived-myeloid cells in culture was carried out using a known method (Yvan-Charvet et al. 2010. supra). Briefly, after lysis of red blood cells from crude BM, cells were cultured in IMDM (Gibco) containing 10% fetal bovine serum (FBS) for 2 hours to remove attached cells. The unattached cells were replated for 72 hours in various conditions as described in FIG. 4. Stem cell factor, IL3, and GM-CSF were from R&D Systems. U0126, PP2, and ApoA1 were from Sigma. Squalene synthase inhibitor (SSI) compound CP-340868 was from Pfizer. Cells were pulsed with 2 μCi/mL ^3H-thymidine for 3 hours and ^3H-thymidine incorporation was monitored by using liquid scintillation counter.

[10] = tested on: ACAT1 and ACAT2; conditions: cited from earlier work
[11] = tested on: atherosclerosis, familial hypercholesterolemia; conditions: patients with high risk for atherosclerosis or familial hypercholesterolemia; cited from earlier work
[12] = molecular target: T1, ACAT1; conditions: cited from earlier work; remark: listed apart in the source
[13] = molecular target: T2, hACAT-2; conditions: cited from earlier work; remark: listed apart in the source
[14] = molecular target: T3, ACAT2 (Chlorocebus aethiops, UniProt O77759); conditions: read-out: selective inhibition, ACAT2; cited from earlier work
T3 sequence (O77759 1-526): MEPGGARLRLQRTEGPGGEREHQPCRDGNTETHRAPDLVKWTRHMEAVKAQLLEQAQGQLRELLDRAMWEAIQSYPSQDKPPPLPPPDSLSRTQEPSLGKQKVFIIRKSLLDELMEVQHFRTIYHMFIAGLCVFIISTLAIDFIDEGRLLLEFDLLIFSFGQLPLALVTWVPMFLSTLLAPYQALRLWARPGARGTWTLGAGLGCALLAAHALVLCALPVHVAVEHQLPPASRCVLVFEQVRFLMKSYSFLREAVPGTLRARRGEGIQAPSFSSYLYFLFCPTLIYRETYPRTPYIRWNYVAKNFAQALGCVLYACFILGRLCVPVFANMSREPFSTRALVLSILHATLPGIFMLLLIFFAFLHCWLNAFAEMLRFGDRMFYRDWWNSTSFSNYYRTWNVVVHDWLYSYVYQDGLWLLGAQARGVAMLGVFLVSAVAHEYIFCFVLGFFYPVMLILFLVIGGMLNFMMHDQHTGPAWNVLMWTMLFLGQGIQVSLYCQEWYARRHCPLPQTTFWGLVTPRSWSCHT

[15] = molecular target: T1, ACAT1; conditions: cited from earlier work; remark: listed apart in the source
[16] = tested on: mouse ACAT1; experiment: ACAT1 knockdown by Acat1 miRs in NIH-3T3 mouse fibroblasts; assay type: cell-based; conditions: pre-microRNAs SEQ ID NO:5 and 6
Excerpt: Four different siRNA sequences (#52-#55) targeting the mouse Acat1 (also called Soat1) gene were inserted into an endogenous mouse microRNA (miR) scaffold using Invitrogen's RNAi design tool. The artificial miRs were ligated into the mammalian expression vector pcDNA6.2-GW/EmGFP-miR. […] The miRs were delivered to the cells by using standard cDNA transfection protocol. […] These two Acat1 miR sequences and the NC miR sequence were also subcloned into an rAAV backbone vector (AAV-6P-SEWB) that contained the […]. This vector contains a strong and cell-type-nonspecific promoter that expresses Acat1 miRs in any cell type where the viral genome is expressed. For identification purpose, it also coexpresses the GFP with the miRs. These three constructs were used to produce three recombinant AAV viruses. To test the efficacy and specificity of these viruses, cultured primary hippocampal neurons were treated with the NC AAV, or with AAV that expresses miR that contain siRNA Acat1 #55. Two weeks after viral infection, the effects of AAVs on cholesteryl ester biosynthesis in neurons were tested. […] One month after injection, mice were sacrificed and the ACAT1 enzyme activities in the mouse brain homogenates were analyzed by using standard ACAT enzyme activity assay in vitro.

[17] = mouse model for Alzheimer disease

**Q.** With CC(C)c1cc(C(C)C)c(CC(=O)NS(=O)(=O)Oc2c(C(C)C)cccc2C(C)C)c(C(C)C)c1 [Avasimibe] as the molecule, how does the IC50 [1] read?
**A.** 18.7 µM

**Q.** What about the IC50 [2] of the same molecule?
**A.** 19.1 µM

**Q.** And the safety when administered [3]?
**A.** safe

**Q.** What about the “foam cell formation in macrophages” value [4] of the same molecule?
**A.** reduces foam cell formation

**Q.** And the “efficacy to further reduce progression of coronary atherosclerosis” value [5]?
**A.** failed to demonstrate efficacy

**Q.** What about the “activity in a mouse model for Alzheimer's disease” value ([6]; 14.4 mg/kg/day) of the same molecule?
**A.** beneficial activity

**Q.** And the amyloid plaque load [6, 17]?
**A.** significant decreases

**Q.** And the cognitive deficits [6, 17]?
**A.** reduction in cognitive deficits

**Q.** What about the “reducing cholesterol ester content in various systemic tissues” value [7] of the same molecule?
**A.** effective

**Q.** Which “safety for use in vivo” value [8] does the source give for CSc1cc(C)nc(SC)c1NC(=O)CN1CCN(CCSc2nc3ccccc3[nH]2)CC1 [K-604] here?
**A.** safe

**Q.** For CC(C)(C)n1nc(-c2ccc(Cl)cc2)c2c(N)ncnc21 [PP2], which “effect on higher 3H-thymidine incorporation phenotype of Acat1-/- BM cells” value [9] is on record?
**A.** partially alleviated

**Q.** With CCCCCCCCN1CCc2c(C)c(CC(=O)O)c(C)c(NC(=O)C(C)(C)C)c21 [Pactimibe] as the molecule, how does the “relative potency on ACAT1 and ACAT2” value [10] read?
**A.** approximately equal potency

**Q.** What about the “efficacy as a supplement to statin treatment” value [11] of the same molecule?
**A.** lacked efficacy

**Q.** Which “effect on higher 3H-thymidine incorporation phenotype of Acat1-/- BM cells” value [9] does the source give for N#CC(=C(/N)Sc1ccccc1N)/C(C#N)=C(\N)Sc1ccccc1N [U0126] here?
**A.** partially alleviated

**Q.** With CCOC(=O)OC(=O)OCC [diethyl pyrocarbonate] as the molecule, how does the “greater activity on ACAT1 compared to ACAT-2” value [12] read?
**A.** 4 fold

**Q.** For COc1ccc([C@@H](O)[C@@H](C)Oc2ccc([C@H]3O[C@H](c4ccc(O[C@H](C)[C@H](O)c5ccc6c(c5)OCO6)c(OC)c4)[C@H](C)[C@H]3C)cc2OC)cc1OC [manassantin B], which “inhibition of hACAT-2” value ([13]; at 1 mM) is on record?
**A.** 32%

**Q.** With “ApoA1: a cellular cholesterol efflux mediator” as the molecule, how does the “effect on enhanced proliferation of Acat1-/- BM cells” value ([9]; ApoA1 at 50 or 100 μg/ml) read?
**A.** did not diminish

**Q.** For beauveriolide I, which IC50 [14] is on record?
**A.** 20 µM

**Q.** Which IC50 [15] does the source give for saucerneol B here?
**A.** 43 µM

**Q.** What about the IC50 [13] of the same molecule?
**A.** 124 µM

B1: #54: microRNA against mouse ACAT1, target sequence SEQ ID NO:3; pre-microRNA SEQ ID NO:5 (nucleic acid)
chain: TGCTGTCCAGTATCAGAATGAACCGGGTTTTGGCCACTGACTGACCCGGTTCACTGATACTGGA
modifications: expressed or natural sequence
**Q.** Which “mouse ACAT1 expression” value [16] does the source give for B1 here?
**A.** decrease

B2: #55: microRNA against mouse ACAT1, target sequence SEQ ID NO:4; pre-microRNA SEQ ID NO:6 (nucleic acid)
chain: TGCTGTACAGTAGGAGTCCTTGGGTAGTTTTGGCCACTGACTGACTACCCAAGCTCCTACTGTA
modifications: expressed or natural sequence
**Q.** Which “mouse ACAT1 expression” value [16] does the source give for B2 here?
**A.** decrease
